# Biological target: T1, protein-protein interaction between SOS1 and KRAS G12C (Homo sapiens, UniProt Q07889)
# T1 construct: purchased Cisbio 64KRASG12PEG
# T1 sequence (Q07889 1-1333): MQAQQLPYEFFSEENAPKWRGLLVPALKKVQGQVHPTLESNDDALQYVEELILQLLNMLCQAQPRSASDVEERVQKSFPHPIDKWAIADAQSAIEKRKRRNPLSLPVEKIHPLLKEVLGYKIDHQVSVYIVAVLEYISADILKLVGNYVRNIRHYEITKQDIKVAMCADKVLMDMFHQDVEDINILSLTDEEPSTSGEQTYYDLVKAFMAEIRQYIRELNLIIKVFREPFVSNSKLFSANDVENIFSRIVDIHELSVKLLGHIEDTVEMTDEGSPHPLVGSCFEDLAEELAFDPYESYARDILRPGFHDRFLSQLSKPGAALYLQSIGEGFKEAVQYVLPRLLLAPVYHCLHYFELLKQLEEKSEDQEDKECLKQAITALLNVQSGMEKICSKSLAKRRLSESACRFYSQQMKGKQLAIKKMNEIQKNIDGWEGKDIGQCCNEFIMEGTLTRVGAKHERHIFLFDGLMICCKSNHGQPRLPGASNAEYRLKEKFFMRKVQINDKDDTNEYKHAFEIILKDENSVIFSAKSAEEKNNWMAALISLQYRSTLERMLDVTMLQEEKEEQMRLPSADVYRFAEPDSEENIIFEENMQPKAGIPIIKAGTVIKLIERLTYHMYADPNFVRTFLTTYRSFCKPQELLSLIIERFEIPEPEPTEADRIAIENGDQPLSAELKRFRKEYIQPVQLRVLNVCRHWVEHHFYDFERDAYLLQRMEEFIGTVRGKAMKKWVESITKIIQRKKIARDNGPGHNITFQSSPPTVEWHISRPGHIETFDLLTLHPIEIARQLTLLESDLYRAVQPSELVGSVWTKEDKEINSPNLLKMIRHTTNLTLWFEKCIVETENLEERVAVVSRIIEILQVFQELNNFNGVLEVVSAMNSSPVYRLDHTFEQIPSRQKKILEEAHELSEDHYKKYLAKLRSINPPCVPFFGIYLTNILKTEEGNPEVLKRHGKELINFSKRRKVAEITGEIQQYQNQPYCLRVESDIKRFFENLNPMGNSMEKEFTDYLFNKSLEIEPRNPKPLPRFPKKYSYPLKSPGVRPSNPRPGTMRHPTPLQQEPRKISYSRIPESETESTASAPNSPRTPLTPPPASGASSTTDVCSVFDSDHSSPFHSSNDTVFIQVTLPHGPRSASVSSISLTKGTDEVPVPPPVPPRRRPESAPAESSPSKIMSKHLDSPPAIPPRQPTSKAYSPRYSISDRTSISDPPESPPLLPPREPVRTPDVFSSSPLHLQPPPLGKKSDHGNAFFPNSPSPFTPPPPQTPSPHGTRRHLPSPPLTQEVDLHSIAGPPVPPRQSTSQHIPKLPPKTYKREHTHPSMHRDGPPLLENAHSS
# Experiment: KRAS::SOS1 HTRF binding analysis (KRAS G12C/SOS1 binding kit)
# Settings: compound at 0.1 uM
# Protocol: 1-1. KRAS::SOS1 HTRF binding analysis
# An SOS1 inhibitory ability of the example compounds of the present invention was confirmed by identifying the effect of inhibiting a protein-protein interaction between SOS1 and KRAS G12C of the compounds according to examples of the present invention.
# Specifically, a KRAS G12C/SOS1 binding kit (64KRASG12PEG, Cisbio, France) was purchased and used. 2 µℓ of Tag1-KRAS G12C and 2 µℓ of GTP were premixed and dispensed 4 µl each into a 384 well plate (6007290, PerkinElmer, USA). 2 µℓ of the compound and 4 µℓ of Tag2-SOS1 were placed and then 10 µℓ of premixed Anti-Tag1 XL665 antibody and Anti-Tag2 Tb cryptate antibody was dispensed to each well. The plates were sealed and allowed to react at room temperature for one hour and 40 minutes, and then 665 nm wavelength and 620 nm wavelength were measured using a HTRF® compatible reader (Synergy H4, BioTeK, USA), and the ratio of receptor and donor emission signals for each well was calculated as 665 nm/620 nm×10^4.
# (+++: more than 70 to 100% inhibition, ++: more than 40 to 70% inhibition, +: 0 to 40% inhibition) [Table 4]
row,SMILES,inhibition at 0.1 µM [%]
1,"CC(=O)N1CC=C(c2ccc3nncc(N[C@H](C)c4cccc(C(F)F)c4F)c3c2)CC1 [Example 1, (R)-1-(4-(4-(1-(3-(difluoromethyl)-2-fluorophenyl)ethylamino)cinnolin-6-yl)-5,6-dihydropyridin-1(2H)-yl)ethanone]",0 to 40
2,"C[C@@H](Nc1cnnc2ccc(C3=CCN(C)CC3)cc12)c1cccc(C(F)F)c1F [Example 3, (R)-N-(1-(3-(difluoromethyl)-2-fluorophenyl)ethyl)-6-(1-methyl-1,2,3,6-tetrahydropyridin-4-yl)cinnolin-4-amine]",70 to 100
3,"C[C@@H](Nc1cnnc2ccc(C3=CCOCC3)cc12)c1cccc(C(F)F)c1F [Example 4, (R)-N-(1-(3-(difluoromethyl)-2-fluorophenyl)ethyl)-6-(3,6-dihydro-2H-pyran-4-yl)cinnolin-4-amine]",0 to 40
4,"C[C@@H](Nc1cnnc2ccc(N3CCC(N(C)C)CC3)cc12)c1cccc(C(F)F)c1F [Example 6, (R)-N-(1-(3-(difluoromethyl)-2-fluorophenyl)ethyl)-6-(4-(dimethylamino)piperidin-1-yl)cinnolin-4-amine]",40 to 70
5,"C[C@@H](Nc1cnnc2ccc(N3CC4(CN(C)C4)C3)cc12)c1cccc(C(F)F)c1F [Example 7, (R)-N-(1-(3-(difluoromethyl)-2-fluorophenyl)ethyl)-6-(6-methyl-2,6-diazaspiro[3.3]heptan-2-yl)cinnolin-4-amine]",70 to 100
6,"C[C@@H](Nc1cnnc2ccc(N3CCN(C4COC4)CC3)cc12)c1cccc(C(F)F)c1F [Example 8, (R)-N-(1-(3-(difluoromethyl)-2-fluorophenyl)ethyl)-6-(4-(oxetan-3-yl)piperazin-1-yl)cinnolin-4-amine]",0 to 40
7,"C[C@@H](Nc1cnnc2ccc(N3CCN4CCOC[C@@H]4C3)cc12)c1cccc(C(F)F)c1F [Example 9, N-((R)-1-(3-(difluoromethyl)-2-fluorophenyl)ethyl)-6-((S)-hexahydropyrazino[2,1-c][1,4]oxazin-8(1H)-yl)cinnolin-4-amine]",40 to 70
8,"C[C@@H](Nc1cnnc2ccc(N3CCOCC3)cc12)c1cccc(C(F)F)c1F [Example 10, (R)-N-(1-(3-(difluoromethyl)-2-fluorophenyl)ethyl)-6-morpholinocinnolin-4-amine]",0 to 40
9,"C[C@@H](Nc1cnnc2ccc(N3CC4(COC4)C3)cc12)c1cccc(C(F)F)c1F [Example 11, (R)-N-(1-(3-(difluoromethyl)-2-fluorophenyl)ethyl)-6-(2-oxa-6-azaspiro[3.3]heptan-6-yl)cinnolin-4-amine]",0 to 40
10,"C[C@@H](Nc1cnnc2ccc(N3CC4CC(C3)O4)cc12)c1cccc(C(F)F)c1F [Example 12, 6-(6-oxa-3-azabicyclo[3.1.1]heptan-3-yl)-N-((R)-1-(3-(difluoromethyl)-2-fluorophenyl)ethyl)cinnolin-4-amine]",40 to 70
11,"C[C@@H](Nc1cnnc2ccc(N3C[C@H]4C[C@@H]3CO4)cc12)c1cccc(C(F)F)c1F [Example 13, 6-((1R,4R)-2-oxa-5-azabicyclo[2.2.1]heptan-5-yl)-N-((R)-1-(3-(difluoromethyl)-2-fluorophenyl)ethyl)cinnolin-4-amine]",40 to 70
12,"C[C@@H](Nc1cnnc2ccc(N3C[C@@H]4C[C@H]3CO4)cc12)c1cccc(C(F)F)c1F [Example 14, 6-((1S,4S)-2-oxa-5-azabicyclo[2.2.1]heptan-5-yl)-N-((R)-1-(3-(difluoromethyl)-2-fluorophenyl)ethyl)cinnolin-4-amine]",0 to 40
13,"C[C@@H](Nc1cnnc2ccc(N3C4CCC3COC4)cc12)c1cccc(C(F)F)c1F [Example 15, 6-(3-oxa-8-azabicyclo[3.2.1]octan-8-yl)-N-((R)-1-(3-(difluoromethyl)-2-fluorophenyl)ethyl)cinnolin-4-amine]",0 to 40
14,"C[C@@H](Nc1cnnc2ccc(N3CC4CCC(C3)O4)cc12)c1cccc(C(F)F)c1F [Example 16, 6-(8-oxa-3-azabicyclo[3.2.1]octan-3-yl)-N-((R)-1-(3-(difluoromethyl)-2-fluorophenyl)ethyl)cinnolin-4-amine]",0 to 40
15,"C[C@@H](Nc1cnnc2ccc(N3CCSCC3)cc12)c1cccc(C(F)F)c1F [Example 17, (R)-N-(1-(3-(difluoromethyl)-2-fluorophenyl)ethyl)-6-thiomorpholinocinnolin-4-amine]",0 to 40
16,"C[C@@H](Nc1cnnc2ccc(N3CCC(O)CC3)cc12)c1cccc(C(F)F)c1F [Example 18, (R)-1-(4-((1-(3-(difluoromethyl)-2-fluorophenyl)ethyl)amino)cinnolin-6-yl)piperidin-4-ol]",70 to 100
17,"C[C@@H](Nc1cnnc2ccc(N3CCC(C)(O)CC3)cc12)c1cccc(C(F)F)c1F [Example 19, (R)-1-(4-((1-(3-(difluoromethyl)-2-fluorophenyl)ethyl)amino)cinnolin-6-yl)-4-methylpiperidin-4-ol]",40 to 70
18,"C[C@@H](Nc1cnnc2ccc(N3CCC[C@@H](O)C3)cc12)c1cccc(C(F)F)c1F [Example 20, (R)-1-(4-(((R)-1-(3-(difluoromethyl)-2-fluorophenyl)ethyl)amino)cinnolin-6-yl)piperidin-3-ol]",0 to 40
19,"C[C@@H](Nc1cnnc2ccc(N3CCC[C@H](O)C3)cc12)c1cccc(C(F)F)c1F [Example 21, (S)-1-(4-(((R)-1-(3-(difluoromethyl)-2-fluorophenyl)ethyl)amino)cinnolin-6-yl)piperidin-3-ol]",40 to 70
20,"COC1CCN(c2ccc3nncc(N[C@H](C)c4cccc(C(F)F)c4F)c3c2)CC1 [Example 22, (R)-N-(1-(3-(difluoromethyl)-2-fluorophenyl)ethyl)-6-(4-methoxypiperidin-1-yl)cinnolin-4-amine]",0 to 40
21,"CO[C@@H]1CCCN(c2ccc3nncc(N[C@H](C)c4cccc(C(F)F)c4F)c3c2)C1 [Example 23, N-((R)-1-(3-(difluoromethyl)-2-fluorophenyl)ethyl)-6-((R)-3-methoxypiperidin-1-yl)cinnolin-4-amine]",0 to 40
22,"CO[C@H]1CCCN(c2ccc3nncc(N[C@H](C)c4cccc(C(F)F)c4F)c3c2)C1 [Example 24, N-((R)-1-(3-(difluoromethyl)-2-fluorophenyl)ethyl)-6-((S)-3-methoxypiperidin-1-yl)cinnolin-4-amine]",0 to 40
23,"C[C@@H](Nc1cnnc2ccc(N3CC[C@@H](F)C3)cc12)c1cccc(C(F)F)c1F [Example 25, N-((R)-1-(3-(difluoromethyl)-2-fluorophenyl)ethyl)-6-((R)-3-fluoropyrrolidin-1-yl)cinnolin-4-amine]",0 to 40
24,"C[C@@H](Nc1cnnc2ccc(N3CC[C@H](F)C3)cc12)c1cccc(C(F)F)c1F [Example 26, N-((R)-1-(3-(difluoromethyl)-2-fluorophenyl)ethyl)-6-((S)-3-fluoropyrrolidin-1-yl)cinnolin-4-amine]",0 to 40
25,"C[C@@H](Nc1cnnc2ccc(N3CC[C@@H](O)C3)cc12)c1cccc(C(F)F)c1F [Example 27, (R)-1-(4-(((R)-1-(3-(difluoromethyl)-2-fluorophenyl)ethyl)amino)cinnolin-6-yl)pyrrolidin-3-ol]",40 to 70
